Experimental data as given in PubChem BioAssay AID1288 (Columbia University Molecular Screening Center, 2008).
Calls of active or inactive are those of the source. How the calls were made is not given here.

Experiment: inhibitors of TNFa-induced E-selectin expression, confirmation, imaging, retest plus dose response, cell count (AID 1288);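 further: 0% = stimulated vehicle wells and 100% = unstimulated vehicle wells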
Settings: human endothelial cells, TNFa-induced E-selectin, imaging; at 2 µM; stronger effect = higher value

Structure (SMILES)	inhibition
CCCN1CCc2[nH]c(=S)[nH]c(=O)c2C1	-2.07% (inactive)
COC(=O)CN1C(=S)N(c2ccc(Cl)cc2)C(=O)C1CC(=O)Nc1ccc(Cl)cc1 (stereo not drawn)	-1.33% (inactive)
CCCn1nnnc1SCC(=O)N1CCOCC1	20.5% (inactive)
O=[N+]([O-])c1ccc(N2CCNCC2)cc1NCC1CCCO1 (stereo not drawn)	-1.91% (inactive)
CC(=O)Oc1cccc(N2C(=O)C3CC=C(Cl)CC3C2=O)c1 (stereo not drawn)	31.6% (inactive)
COc1ccc(NC(=O)N(CCCN2CCOCC2)Cc2cccnc2)c(OC)c1	3.7% (inactive)
O=C(Nc1nnc(SCc2ccccc2)s1)c1cccc([N+](=O)[O-])c1	6.01% (inactive)
CCCNC(=O)C1CCN(S(=O)(=O)c2c(C)noc2/C=C\c2ccc(OC)cc2)CC1	6.76% (inactive)
O=c1[nH][nH]cc1C=Nc1ccc(Cl)cc1	46.9% (inactive)
O=S(=O)(NCC(c1ccco1)N1CCN(c2ccccc2)CC1)c1ccc(F)cc1 (stereo not drawn)	6.17% (inactive)
O=S(=O)(Nc1ccccn1)c1ccc(Cl)c2ccccc12	9.42% (inactive)
Cc1nc2ccc(NC(=O)C3CCN(S(=O)(=O)c4cccs4)CC3)cc2s1	18.1% (inactive)
CCOC(=O)c1sc(=N)n(-c2ccc(OC)cc2)c1C	-1.33% (inactive)
Cn1c(=O)[nH]c(=O)c2c1nc(N1CCCCC1)n2CCCSc1nnnn1-c1ccccc1	10.1% (inactive)
O=C(Nc1ccc2nsnc2c1)c1ccc2c(c1)OCO2	7.37% (inactive)
COc1ccc(C(=O)C2(C)N(O)C(C)C(c3cccs3)=[N+]2[O-])cc1 (stereo not drawn)	9.94% (inactive)
COc1ccc(S(=O)(=O)Cc2ccc(C(=O)N3CCOCC3)o2)cc1	26.4% (inactive)
CC(c1ccco1)N(C(=O)C12CC3CC(CC(C3)C1)C2)c1ccccn1 (stereo not drawn)	5.6% (inactive)
O=C(Nc1nc(-c2ccccc2)c(-c2ccccc2)s1)c1ccc(S(=O)(=O)N(CCCl)CCCl)cc1	-7.24% (inactive)

Structure (SMILES)	inhibition
CCCCn1c2nc3ccccc3nc2c2c(=O)n(-c3ccccc3)cnc21	-1.49% (inactive)
CCCCOc1ccc(-c2nnn(C(C)C(=O)OCC)n2)cc1 (stereo not drawn)	27.1% (inactive)
COc1ccc(CNC(=O)c2ccc(NC(=O)CC3SC(N4CCCCC4)=NC3=O)cc2)cc1 (stereo not drawn)	4.81% (inactive)
Cc1nc2ccc(NC(=O)c3cc(S(=O)(=O)N4CCOCC4)ccc3C)cc2s1	16% (inactive)
N#CC(C#N)=C/C(C#N)=C(/N)N1CCN(c2ccc(Cl)cc2)CC1	6.82% (inactive)
COc1ccc(/C(C)=N/OCC(=O)N2CC3(C)CC2CC(C)(C)C3)cc1 (stereo not drawn)	17.2% (inactive)
Cc1cc(NC(=O)CSc2nnc3c4c(C)c(C)sc4ncn23)no1	14.7% (inactive)
COc1ccc(C2CC(O)(C(C)(C)O)NO2)cc1 (stereo not drawn)	-4.94% (inactive)
COC(=O)c1cc2c(s1)CS(=O)C2 (stereo not drawn)	14.6% (inactive)
N/C(Cc1ccc([N+](=O)[O-])cc1)=N\OC(=O)COc1ccc2ccccc2c1	12.6% (inactive)
Cc1cccc(C(=O)NNC(=O)Nc2ccccc2)c1	-2.06% (inactive)
Cc1cc(C(=O)Nc2nc3c(s2)CCCC3)no1	6.49% (inactive)
COc1ccc(CCNC(=O)COc2ncnc3cc([N+](=O)[O-])ccc23)cc1	15.8% (inactive)
Cc1ccc(Cc2cnc(NC(=O)/C(C#N)=C/c3ccc(-c4ccccc4[N+](=O)[O-])o3)s2)cc1	5.26% (inactive)
CCCCN(C(=O)c1cc(OC)c(OC)c(OC)c1)C1=CC2CCC(C1)N2C (stereo not drawn)	8.59% (inactive)
COC(=O)c1cc2sc(Cl)cc2n1CC(=O)Nc1cccc(SC)c1	2.57% (inactive)
CC(=O)C1=C(C)NC(SCc2cccc3ccccc23)=C(C#N)C1c1ccco1 (stereo not drawn)	5.13% (inactive)
Cc1ccc(NC(=O)COc2ccc(-n3ccnc3)cc2)cc1Cl	9.69% (inactive)
COc1cccc(C(C)NC(=O)c2c(F)cccc2Cl)c1 (stereo not drawn)	21.5% (inactive)
